Measured values reported in the supplement of paper PMC11208160.

Test: recombinant UMI read abundance after kanamycin selection (control-corrected) (log10(CPM+1)); higher = more efficient recombination; extreme values may be limits of the assay; sequences stand for … in AGTGCAGAGAAAATCGGCCAGTTTTCTCTGCCTGCAGTCCGCATGCCGTGGGACCCCTTGGGTTCTAACCTGTTGCCTAGATTTATGCAGCGGACTGCCTTTCTCCCAAAGTGATAAACCGG…AGGTTGGTTTCACT; site = the 11-nt donor
Outline: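 Counts of recombinant UMIs were reported as log10(CPM+1). Before that, they were converted to CPM, averaged over replicates and scaled using control-derived factors. They came from PCR across the donor–target junction after Escherichia coli carrying the pair library and target plasmid was plated on IPTG (0.07 mM) plus kanamycin, or unselected, in two replicates each.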
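Note: IS621 bridge recombinase in Escherichia coli cells against a fixed T5 target plasmid.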

Sequence	recombinant UMI read abundance (log10)
GCGGAGGCATGGACCGGTTTTCCCGGTAATCCGTATTTGTG (site GCGGAGGCTCA)	1.37
GCGGAGGCATGGACCGGTTTTCCCGGTAATCCGTATTTGTG (site GGGGAGGCTCA)	0.333
GCGGAGGCATGGACCGGTTTTCCCGGTAATCCGTATTTGTG (site GTGGAGGCTCA)	0.832
GCGGCATCATGGACCGGTTTTCCCGGTAATCCGTATTTGTC (site GCGGCATCTGA)	2.21
GCGGGCGCATGGACCGGTTTTCCCGGTAATCCGTATTTGAT (site GCGGGCGCTAT)	1.44
GCGGGTGCATGGACCGGTTTTCCCGGTAATCCGTATTTGCC (site GCGGGTGCTGG)	1.43
GCGGTTCCATGGACCGGTTTTCCCGGTAATCCGTATTTGTC (site GCGGTTCCTGA)	0
GCGTAGGCATGGACCGGTTTTCCCGGTAATCCGTATTTGCT (site GCGTAGGCTAG)	2.51
GCGTCAACATGGACCGGTTTTCCCGGTAATCCGTATTTGCG (site GCGTCAACTCG)	0.00614
GCGTCGTCATGGACCGGTTTTCCCGGTAATCCGTATTTGTT (site GCGTCGTCTAA)	0.947
GCTACCTCATGGACCGGTTTTCCCGGTAATCCGTATTTGTC (site GCTACCTCTGA)	2.17
GCTACGCCATGGACCGGTTTTCCCGGTAATCCGTATTTGTA (site GCAACGCCTTA)	0.00895
GCTACGCCATGGACCGGTTTTCCCGGTAATCCGTATTTGTA (site GCCACGCCTTA)	0.0278
GCTACGCCATGGACCGGTTTTCCCGGTAATCCGTATTTGTA (site GCGACGCCTTA)	0.162
GCTACGCCATGGACCGGTTTTCCCGGTAATCCGTATTTGTA (site GCTACGCCTTA)	0.343
GCTACTCCATGGACCGGTTTTCCCGGTAATCCGTATTTGCC (site GCTACTACTGG)	0

Sequence	recombinant UMI read abundance (log10)
GCTACTCCATGGACCGGTTTTCCCGGTAATCCGTATTTGCC (site GCTACTCCTGG)	0
GCTACTCCATGGACCGGTTTTCCCGGTAATCCGTATTTGCC (site GCTACTGCTGG)	0
GCTACTCCATGGACCGGTTTTCCCGGTAATCCGTATTTGCC (site GCTACTTCTGG)	0.0501
GCTACTGCATGGACCGGTTTTCCCGGTAATCCGTATTTGGC (site GCTACTGCTGA)	0.76
GCTACTGCATGGACCGGTTTTCCCGGTAATCCGTATTTGGC (site GCTACTGCTGC)	1.92
GCTACTGCATGGACCGGTTTTCCCGGTAATCCGTATTTGGC (site GCTACTGCTGG)	0
GCTACTGCATGGACCGGTTTTCCCGGTAATCCGTATTTGGC (site GCTACTGCTGT)	1.54
GCTAGAACATGGACCGGTTTTCCCGGTAATCCGTATTTGGC (site GATAGAACTGC)	0
GCTAGAACATGGACCGGTTTTCCCGGTAATCCGTATTTGGC (site GCTAGAACTGC)	2.02
GCTAGAACATGGACCGGTTTTCCCGGTAATCCGTATTTGGC (site GGTAGAACTGC)	0
GCTAGAACATGGACCGGTTTTCCCGGTAATCCGTATTTGGC (site GTTAGAACTGC)	0
GCTAGCACATGGACCGGTTTTCCCGGTAATCCGTATTTGCT (site GCTAGCACTAG)	1.64
GCTAGTGCATGGACCGGTTTTCCCGGTAATCCGTATTTGCC (site GCTAATGCTGG)	0
GCTAGTGCATGGACCGGTTTTCCCGGTAATCCGTATTTGCC (site GCTACTGCTGG)	0
GCTAGTGCATGGACCGGTTTTCCCGGTAATCCGTATTTGCC (site GCTAGTGCTGG)	1.86
GCTAGTGCATGGACCGGTTTTCCCGGTAATCCGTATTTGCC (site GCTATTGCTGG)	0
